According to patent US20030027819A1, “Beta-sheet mimetics and methods relating to the use thereof” (Molecumetics Ltd., priority 1996, published 2003):
pIC50, pKi: −log10 of the molar value. Where “and” joins values, the source holds several entries; their conditions need not be identical. Equal values may be shown once. Each block holds one compound with its values, some of them ahead of it.

Columns and labels:
[1] = target: T1, Tissue Plasminogen Activator (t-PA) (Homo sapiens, UniProt P00750); assay: Tissue plasminogen activator inhibition assay (IC50, Example 4); type: biochemical
Description: (§1) This solution (2.05 mM) served as the stock solution for all the inhibition assays. The hydrolysis of chromogenic substrates was monitored at 405 nm. The reaction progress curves were recorded by reading the plates typically 90 times with 30 seconds to 2 minute intervals. The initial rate were determined by unweighted nonlinear least-squares fitting to a first order reaction in GraFit.
Buffer, substrate and the dilution scheme of structure (13b) were the same as utilized for Factor VII assay.

FVIIa and TF complex = target: T2, FVIIa and TF complex (Homo sapiens, UniProt P08709); assay: Factor VII inhibition assay (IC50, Example 4); type: biochemical
T2 construct: 50 μl of 16 nM FVIIa and TF complex solution
Description: as §1
In the Factor VII assay, S-2288 (from Pharmacia), D-Ile-Pro-Arg-pNA was used at […] in deionized water as substrate. […] This dilution served as the first point of the inhibitor (20 μM). From this concentration point 6 more sequential dilutions were made with a dilution factor of 2. 50 μl of 16 nM FVIIa and TF complex solution and 40 μl of the inhibitor solutions were added into each well, the mixtures were incubated for 20 minutes before 10 μl of 20 mM S-2288 was added.

Plasmin [2] = target: T3, Plasmin (Bos taurus, UniProt P06868); assay: Plasmin inhibition assay (IC50, Example 4); type: biochemical
Description: as §1
For dilutions of structure (13b) (see urokinase assay).

control plasma = assay: Prothrombin time (PT) in control plasma; type: biochemical
Description: Then 200 μl of prewarmed (at 37° C. for ˜10 minutes) thromboplastin with calcium (from Sigma) was rapidly added into the plasma sample.

bovine factor Xa = target: T4, bovine factor Xa (Bos taurus, UniProt P00743); assay: Factor X inhibition assay (IC50, Example 4); type: biochemical
T4 construct: 25 nM of bovine factor Xa (from Sigma); purchased Sigma
Description: as §1
In the Factor X assay, buffer and substrate are the same as used for thrombin assay. A 1:100 dilution was made into pH 8.4 Tris buffer to serve as the first point. Seven dilutions with a dilution factor of 2 were made. The assay protocol is the same as for thrombin except 25 nM of bovine factor Xa (from Sigma) in pH 8.4 Tris buffer was used instead of thrombin.

urokinase [3] = target: T5, urokinase (Homo sapiens, UniProt P00749); assay: Urokinase inhibition assay (IC50, Example 4); type: biochemical; design: purchased Sigma
Description: as §1
In the urokinase assay, buffer was pH 8.8 0.05 M Tris and 0.05 M NaCl in deionized water. S-2444 (from Sigma), pyroGlu-Gly-Arg-pNA at 0.5 mM in water was utilized as substrate. The same dilution procedure was used as for Factor VII and Factor X. Assay protocol is the same as for thrombin except 18.5 nM of human urokinase (from Sigma) was utilized.

bovine trypsin = target: T6, bovine trypsin (Bos taurus, UniProt P00760); assay: Trypsin inhibition assay (IC50, Example 4); type: biochemical
T6 construct: purchased Sigma
T6 sequence (P00760 24-246): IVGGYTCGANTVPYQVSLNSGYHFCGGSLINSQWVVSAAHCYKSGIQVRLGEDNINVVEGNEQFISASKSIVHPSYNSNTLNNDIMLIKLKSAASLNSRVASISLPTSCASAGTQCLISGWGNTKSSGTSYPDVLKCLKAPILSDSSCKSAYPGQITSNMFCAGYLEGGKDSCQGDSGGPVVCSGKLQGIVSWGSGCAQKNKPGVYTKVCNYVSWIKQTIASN
Description: as §1
In the trypsin assay, pH 7.8 Tris (0.10 M Tris and 0.02 M CaCl2) was utilized as the buffer. BAPNA (from Sigma) was used at 1 mg/ml in 1% DMSO (v/v) deionized water solution as substrate. The same dilutions of structure (13b) were made as for Factor VII assay.

Plasmin [4] = target: T3, Plasmin; assay: Plasmin inhibition assay (Ki, Example 5); type: biochemical, bovine
Description: (§2) The reaction progress curves were recorded by reading the plates, typically 60 times with 30 second to 2 minute intervals. Initial rates were determined by unweighted nonlinear least-squares fitting to a first order reaction in GraFit (Erithacus Software Limited, London, England).

[5] = target: Activated Protein C (aPC) (Homo sapiens, UniProt P04070); assay: Activated Protein C inhibition assay (Ki, Example 5); type: biochemical
Factor XI = Factor XI (Homo sapiens, UniProt P03951); assay: Factor XI inhibition assay (Ki, Example 8); type: biochemical
Description: as §2
Factor XI. The same buffer was utilized in this assay as in the thrombin assay. […] From this 100 μM solution, seven serial 1:5 dilutions were made in buffer for assay.

[6] = target: T1, Tissue Plasminogen Activator (t-PA); assay: t-PA inhibition assay (Ki, Example 5); type: biochemical; settings: read-out: Ki t-PA
Description: as §2

tryptase = tryptase (Homo sapiens, UniProt Q15661); assay: Tryptase inhibition assay (Ki, Example 5); type: biochemical
urokinase [7] = target: T5, urokinase; assay: Urokinase inhibition assay (Ki, Example 5); type: biochemical
factor VII = factor VII (Homo sapiens, UniProt P08709); assay: Factor VII inhibition assay (Ki, Example 5); type: biochemical
Description: as §2
From this concentration point seven more sequential dilutions were made for the assay.

thrombin = thrombin (Bos taurus, UniProt P00735); assay: Thrombin inhibition assay (Ki, Example 5); type: biochemical, bovine; design: thrombin; bovine plasma; 0.66; from tissue; host or cells: bovine plasma
Description: as §2
Seven sequential dilutions were made from the first point for the assay.

factor X = factor X (Bos taurus, UniProt P00743); assay: Factor X inhibition assay (Ki, Example 5), bovine plasma enzyme; type: biochemical; settings: bovine plasma enzyme (Example 5 protocol)
Description: as §2, with “The hydrolysis of chromogenic substrates was monitored at 405 nm. The” for “The”
Buffer and substrate were the same as used for thrombin assay. A 1:100 dilution was made in the pH8.0 tris buffer to serve as the first point. Seven more dilutions from the first were made for the assay.

trypsin = target: T7, trypsin (Bos taurus, UniProt P00760); assay: Trypsin inhibition assay (Ki, Example 5); type: biochemical, bovine
T7 sequence (P00760 24-246): T6 sequence (P00760 24-246)
Description: as §2

[8] = target: T8, human Factor VIIa (FVIIa) and human tissue factor (TF) (Homo sapiens, UniProt P08709); assay: Factor VII assay, hydrolysis of structure (11b) as proteolytic substrate; type: biochemical; settings: ratio of kcat/KM
T8 construct: 10 μl of 20 μM human Factor VIIa (FVIIa)
Description: (§3) Both the thrombin and Factor VII assays of this experiment were carried out at 37° C. using a Hitachi UV/Vis spectrophotometer (model U-3000). Structure (11b) was dissolved in deionized water. The concentration was determined from the absorbance at 342 nm. […] Initial velocities were calculated from the initial linear portion of the reaction progress curve. Kinetic parameters were determined by unweighted nonlinear least-squares fitting of the simple Michaelis-Menten equation to the experimental data using GraFit (Version 3.0, Erithacus Software Limited).
For the Factor VII assay, pH 8.0 Tris buffer (0.05 M Tris, 5 mM CaCl2, 0.15 M NaCl, 0.1% TWEEN 20, 0.1% BSA) was used. 10 μl of 20 μM human Factor VIIa (FVIIa) and 22 μM of human tissue factor (TF) was brought to assay buffer to make 160 nM FVIIa and TF solutions, respectively. […] The initial 3 minutes reaction progress curves were recorded. […] The kcat/KM was calculated from the slope and found to be 17,500 M^−1s^−1.
(§4) In both the thrombin and Factor VII assay of this experiment, (D)FPR-PNA was run as a control.

bovine thrombin = target: T9, bovine thrombin (Bos taurus, UniProt P00735); assay: Thrombin assay, hydrolysis of structure (11b) as proteolytic substrate; type: biochemical
T9 construct: 6.4 NIH units of bovine thrombin (from Sigma); purchased Sigma
Description: as §3
For the thrombin assay, experiments were performed in pH 8.4 Tris buffer (Tris, 0.05M; NaCl, 0.15M). 6.4 NIH units of bovine thrombin (from Sigma) were dissolved into 10 ml of the assay buffer to yield 10 nM thrombin solution. […] The first two minutes of the reactions were recorded for initial velocity determination.
as §4

T8 sequence (P08709 213-466 limits assumed): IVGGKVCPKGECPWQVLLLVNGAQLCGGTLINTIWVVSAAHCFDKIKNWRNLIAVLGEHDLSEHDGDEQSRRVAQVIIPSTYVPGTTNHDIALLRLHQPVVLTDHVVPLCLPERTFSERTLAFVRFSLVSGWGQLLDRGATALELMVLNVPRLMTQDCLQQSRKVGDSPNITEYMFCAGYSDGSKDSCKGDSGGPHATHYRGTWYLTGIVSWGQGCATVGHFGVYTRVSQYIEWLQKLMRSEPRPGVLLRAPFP
T8 sequence (P08709 61-212 limits assumed): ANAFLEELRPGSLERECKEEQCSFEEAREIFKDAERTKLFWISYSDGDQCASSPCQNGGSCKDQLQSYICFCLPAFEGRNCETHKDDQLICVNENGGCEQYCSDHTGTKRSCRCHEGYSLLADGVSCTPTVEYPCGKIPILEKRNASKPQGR
T8 sequence (P13726 33-295 partner): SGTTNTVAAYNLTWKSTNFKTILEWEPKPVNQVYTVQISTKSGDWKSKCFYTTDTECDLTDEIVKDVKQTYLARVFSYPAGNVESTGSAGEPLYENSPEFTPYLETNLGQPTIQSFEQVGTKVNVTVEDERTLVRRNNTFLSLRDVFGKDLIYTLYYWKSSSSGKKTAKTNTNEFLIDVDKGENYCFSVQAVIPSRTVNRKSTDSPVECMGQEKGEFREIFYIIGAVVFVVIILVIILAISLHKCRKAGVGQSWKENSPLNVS
factor VII, sequence (P08709 213-466 limits assumed): as the sequence (P08709 213-466 limits assumed) above
factor VII, sequence (P08709 61-212 limits assumed): as the sequence (P08709 61-212 limits assumed) above
factor VII, sequence (P13726 33-295 partner): as the sequence (P13726 33-295 partner) above
T2 sequence (P08709 213-466 limits assumed): as the sequence (P08709 213-466 limits assumed) above
T2 sequence (P08709 61-212 limits assumed): as the sequence (P08709 61-212 limits assumed) above
T2 sequence (P13726 33-295 partner): as the sequence (P13726 33-295 partner) above
T4 sequence (P00743 234-492 limits assumed): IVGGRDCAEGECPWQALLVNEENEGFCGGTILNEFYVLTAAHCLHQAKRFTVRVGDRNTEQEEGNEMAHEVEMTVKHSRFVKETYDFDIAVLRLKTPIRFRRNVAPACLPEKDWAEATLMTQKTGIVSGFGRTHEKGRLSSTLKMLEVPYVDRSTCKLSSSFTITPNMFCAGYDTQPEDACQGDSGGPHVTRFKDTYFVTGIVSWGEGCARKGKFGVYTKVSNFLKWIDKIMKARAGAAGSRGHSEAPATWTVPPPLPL
T4 sequence (P00743 41-180 limits assumed): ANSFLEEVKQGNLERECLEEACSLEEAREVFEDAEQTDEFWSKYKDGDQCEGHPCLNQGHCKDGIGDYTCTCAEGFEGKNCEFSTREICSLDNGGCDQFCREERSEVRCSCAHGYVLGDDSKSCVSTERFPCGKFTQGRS
factor X, sequence (P00743 234-492 limits assumed): as the sequence (P00743 234-492 limits assumed) above
factor X, sequence (P00743 41-180 limits assumed): as the sequence (P00743 41-180 limits assumed) above
T1 sequence (P00750 36-562): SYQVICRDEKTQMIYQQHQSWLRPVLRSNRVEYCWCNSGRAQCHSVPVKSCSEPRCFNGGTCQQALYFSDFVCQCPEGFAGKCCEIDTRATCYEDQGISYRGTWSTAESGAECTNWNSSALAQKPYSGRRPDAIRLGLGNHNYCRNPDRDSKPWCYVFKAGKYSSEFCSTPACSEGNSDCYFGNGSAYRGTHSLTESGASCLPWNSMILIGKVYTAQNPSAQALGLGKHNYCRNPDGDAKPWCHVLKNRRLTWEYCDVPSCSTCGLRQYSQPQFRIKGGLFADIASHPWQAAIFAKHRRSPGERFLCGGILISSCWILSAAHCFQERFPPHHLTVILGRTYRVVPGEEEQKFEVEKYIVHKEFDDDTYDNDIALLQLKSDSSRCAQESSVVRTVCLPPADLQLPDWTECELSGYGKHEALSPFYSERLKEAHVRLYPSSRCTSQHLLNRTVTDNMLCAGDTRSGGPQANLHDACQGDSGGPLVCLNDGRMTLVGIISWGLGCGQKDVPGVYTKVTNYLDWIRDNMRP
T3 sequence (P06868 584-812 limits assumed): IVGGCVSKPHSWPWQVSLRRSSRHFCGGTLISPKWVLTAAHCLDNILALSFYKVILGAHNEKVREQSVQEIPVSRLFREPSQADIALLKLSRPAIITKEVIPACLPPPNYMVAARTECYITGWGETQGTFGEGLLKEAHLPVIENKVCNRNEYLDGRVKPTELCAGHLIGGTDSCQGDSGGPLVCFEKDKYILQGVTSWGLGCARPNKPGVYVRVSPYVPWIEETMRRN
T3 sequence (P06868 104-583 limits assumed): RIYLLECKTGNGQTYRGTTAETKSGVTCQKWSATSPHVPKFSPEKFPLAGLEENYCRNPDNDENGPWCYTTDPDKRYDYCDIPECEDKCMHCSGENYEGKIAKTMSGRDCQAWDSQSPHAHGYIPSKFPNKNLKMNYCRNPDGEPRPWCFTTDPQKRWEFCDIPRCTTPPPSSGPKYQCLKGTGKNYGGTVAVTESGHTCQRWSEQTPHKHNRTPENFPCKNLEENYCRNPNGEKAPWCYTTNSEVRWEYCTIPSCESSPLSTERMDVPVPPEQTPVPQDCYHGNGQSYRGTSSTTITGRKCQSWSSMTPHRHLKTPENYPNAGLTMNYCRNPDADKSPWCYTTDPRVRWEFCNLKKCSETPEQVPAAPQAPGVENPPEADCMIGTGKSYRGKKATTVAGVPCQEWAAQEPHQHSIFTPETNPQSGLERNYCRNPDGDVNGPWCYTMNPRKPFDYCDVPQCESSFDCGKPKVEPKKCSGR
Factor XI, sequence (P03951 388-625 limits assumed): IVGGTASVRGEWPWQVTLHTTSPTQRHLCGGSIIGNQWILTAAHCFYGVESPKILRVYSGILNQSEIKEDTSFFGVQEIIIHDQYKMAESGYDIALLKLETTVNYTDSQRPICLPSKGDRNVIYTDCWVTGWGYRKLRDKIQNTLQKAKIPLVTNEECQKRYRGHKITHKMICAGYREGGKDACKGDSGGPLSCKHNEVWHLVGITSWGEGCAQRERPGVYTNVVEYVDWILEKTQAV
Factor XI, sequence (P03951 19-387 limits assumed): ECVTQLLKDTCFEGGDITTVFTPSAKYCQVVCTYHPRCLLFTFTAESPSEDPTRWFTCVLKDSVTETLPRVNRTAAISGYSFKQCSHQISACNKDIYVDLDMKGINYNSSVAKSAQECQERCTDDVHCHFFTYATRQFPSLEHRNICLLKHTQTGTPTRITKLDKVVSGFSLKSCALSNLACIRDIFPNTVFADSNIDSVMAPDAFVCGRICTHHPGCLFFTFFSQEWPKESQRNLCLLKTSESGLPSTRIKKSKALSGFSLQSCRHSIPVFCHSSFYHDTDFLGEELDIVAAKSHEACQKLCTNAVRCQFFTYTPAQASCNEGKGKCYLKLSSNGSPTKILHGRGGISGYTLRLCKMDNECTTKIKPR
Activated Protein C (aPC), sequence (P04070 212-461 limits assumed): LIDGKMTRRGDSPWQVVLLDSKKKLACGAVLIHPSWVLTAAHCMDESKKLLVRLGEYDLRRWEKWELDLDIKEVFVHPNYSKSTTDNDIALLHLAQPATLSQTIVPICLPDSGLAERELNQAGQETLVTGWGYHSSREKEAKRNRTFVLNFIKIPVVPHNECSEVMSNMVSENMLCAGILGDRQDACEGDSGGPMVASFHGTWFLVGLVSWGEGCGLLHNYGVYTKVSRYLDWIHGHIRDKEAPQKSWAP
Activated Protein C (aPC), sequence (P04070 43-197 limits assumed): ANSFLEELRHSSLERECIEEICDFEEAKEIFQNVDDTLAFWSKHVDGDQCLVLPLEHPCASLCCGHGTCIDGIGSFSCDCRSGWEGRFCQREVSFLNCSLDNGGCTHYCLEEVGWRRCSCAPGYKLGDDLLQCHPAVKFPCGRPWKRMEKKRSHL
tryptase, sequence (Q15661 31-275): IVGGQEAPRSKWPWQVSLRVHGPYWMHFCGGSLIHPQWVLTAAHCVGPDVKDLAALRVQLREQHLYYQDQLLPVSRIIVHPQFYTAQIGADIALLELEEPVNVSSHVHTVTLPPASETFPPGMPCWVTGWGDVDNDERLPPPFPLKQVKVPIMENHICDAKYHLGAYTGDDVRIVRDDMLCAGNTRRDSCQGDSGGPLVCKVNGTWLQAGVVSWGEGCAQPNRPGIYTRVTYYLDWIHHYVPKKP

pIC50 (FVIIa and TF complex): 6.70
pIC50 (bovine factor Xa): 6.78
pIC50 (bovine trypsin): 6.67
Structure (SMILES): N=C(N)NCCC[C@H](NC(=O)[C@@H]1CCCN1C(=O)[C@H](N)Cc1ccccc1)C(=O)CCl [PPACK, reference compound]
PT (control plasma; Concentration 1 nM): 18 s
PT (control plasma; Concentration 10 nM): 22 s
PT (control plasma; Concentration 40 nM): 28 s
PT (control plasma; Concentration 60 nM): 30 s
PT (control plasma; Concentration 80 nM): 31 s

pKi (Plasmin [4]): 6.60
pKi [5]: 5.90
pKi (Factor XI): 7.12
pKi [6]: 7.03
pKi (tryptase): 8.05
pKi (urokinase [7]): 6.47
pKi (factor VII): 6.70
pKi (thrombin): 10.07
pKi (factor X): 7.77
pKi (trypsin): 9.70 and 9.64
Structure (SMILES): N=C(N)NCCC[C@H](NC(=O)[C@@H]1CC[C@@H]2CC[C@@](N)(Cc3ccccc3)C(=O)N21)C(=O)c1nc2ccccc2s1 [Structure 29b]

Activity compared to the control (D)FPR-PNA [8]: 1.38
kcat (bovine thrombin; substrate hydrolysis, pH 8.4 Tris, 37° C.): 50 s⁻¹
Activity compared to the control (D)FPR-PNA (bovine thrombin; thrombin, ratio of kcat/KM): 0.76
Structure (SMILES): N=C(N)NCCC[C@H](NC(=O)[C@@H]1CCN2CC[C@@](N)(Cc3ccccc3)C(=O)N12)C(=O)Nc1ccc([N+](=O)[O-])cc1 [Structure 11b]
